Test results taken from US20100168434A1, “INHIBITION OF POLYMERISATION” (priority 2005, published 2010).

Experiments:
[1] = Continuous stirred tank reactor (CSTR) styrene polymerisation inhibition; settings: CSTR 110° C., inhibitor 75 ppm; for Polymer level at steady state: nitrogen sparging
Experimental: The evaluation of the efficacy of a selection of nitroxide compounds of the invention was carried out using a continuous stirred tank reactor (CSTR) which mimicked the re-boiler of a styrene distillation column. […] Data gathered after this point was averaged to give the steady state polymer level. Nitrogen sparging to remove oxygen gas was carried out at a measured rate of 200 ml/minute. Apart from the inhibitors, the only variable was the inherent variation in the rate of thermal initiation of styrene polymerisation.

[2] = Sealed-tube polymerisation inhibition, vinyl acetate monomer; settings: degassed with nitrogen, 160° C. for 48 hours, inhibitor 25 ppm
Experimental: (§1) The efficacy of various inhibitors was evaluated with respect to the monomers vinyl acetate, acrylonitrile, 2-ethylhexyl acrylate and isoprene. The efficacy of each inhibitor was determined by heating in pure monomer or a solution of monomer in a suitable solvent(s) for a set time and at a known temperature. The storage inhibitor was removed from each monomer by distillation or treatment with neutral silica. In each of the tables below, the amount of polymer generated is expressed as % w/w of the monomer.
In this case, the tubes and solution were degassed with nitrogen prior to sealing and heating at 160° C. for 48 hours.

[3] = Tube polymerisation inhibition, acrylonitrile monomer; settings: 120° C. for 7 days, air not removed, inhibitor 10 ppm
Experimental: as §1
Similarly, tubes containing acrylonitrile and various inhibitors were heated at 120° C. for 7 days. The air was not removed from these solutions prior to heating.

[4] = Tube inhibition time, 2-ethylhexyl acrylate monomer; settings: 145° C., 5 ppm inhibitor, time to appearance of insoluble polymer
Experimental: as §1
Similarly, tubes containing 5 ppm inhibitor in 2-ethylhexyl acrylate were heated at 145° C. and the results expressed as inhibition time (i.e. the time to appearance of insoluble polymer). Data were generated in nitrogen and in the presence of air.

[5] = Tube polymerisation inhibition, isoprene monomer; settings: 100 ppm inhibitor, 160° C. for 1 hr
Experimental: as §1
Similarly tubes containing 100 ppm inhibitor in a solution of Isoprene in dimethylformamide containing 1 or 3% furfural were heated at 160° C. for 1 hr. […] The results are expressed as ppm insoluble polymer.

[6] = Solubility in water and toluene (saturated solutions, amount dissolved)
[7] = Solubility of inhibitors/retarders in styrene with and without 4-butoxy-TEMPO; settings: in 4-butoxy-TEMPO plus styrene, 20° C.
Experimental: Saturated solutions of the inhibitors/retarders phenothiazine and 4-methoxyphenol were prepared in 4-butoxy-TEMPO. These saturated solutions were then added to styrene so that the concentration of each inhibitor/retarder was above the solubility limit for that material in styrene alone.

2,2,6,6-tetramethylpiperidine-1-oxide [TEMPO]
Polymer level at steady state [1]: 213 ppm

4-butoxy-2,2,6,6-tetramethylpiperidine-1-oxide [4-butoxy-TEMPO]
Polymer level at steady state [1]: 341 ppm | Polymer [2]: 19 % w/w | Polymer [3]: 0.06 % w/w | Inhibition time in air ([4]; air): 40 min | Inhibition time in nitrogen ([4]; nitrogen): 350 min | Insoluble polymer, 1% Furfural ([5]; isoprene in dimethylformamide with 1% furfural): 2.2 ppm | Insoluble polymer, 3% Furfural ([5]; isoprene in dimethylformamide with 3% furfural): 5.3 ppm

4-hydroxy-2,2,6,6-tetramethylpiperidine-1-oxide [4-hydroxy-TEMPO]
Polymer level at steady state [1]: 180 ppm | Polymer [3]: 0.18 % w/w

4-oxo-2,2,6,6-tetramethylpiperidine-1-oxide [4-oxo-TEMPO]
Solubility in toluene ([6]; saturated solution in toluene): >80 % wt/wt | Solubility in water ([6]; saturated solution in water): 22.5 % wt/wt

C=CCOC1CC(C)(C)N([O])C(C)(C)C1 [4-allyloxy-TEMPO]
Polymer level (at 120 mins) ([1]; at 120 mins (not steady state)): 15199 (at 120 mins) ppm

COC1CC(C)(C)N([O])C(C)(C)C1 [4-methoxy-TEMPO]
Polymer level at steady state [1]: 172 ppm

c1ccc2c(c1)Nc1ccccc1S2 [Phenothiazine, phenothiazine]
Polymer [2]: 35 % w/w | Soluble amount, Wt % test material (with respect to styrene) [7]: 7.0 Wt %
